Experimental data from US8232319B2, “Amino phosphate derivative and S1P receptor modulator having same as an active ingredient” (Kyorin Pharmaceutical Co., Ltd., priority 2006, dated 2012).

What was measured:
Assay type in all cases: cell-based
Details in all cases: Fluo 3, 100% = S1P at 10^-6 M
human S1P1 receptor = biological target: T1, human S1P1 receptor (Homo sapiens, UniProt P21453); assay: Intracellular calcium mobilization induced test, hS1P1 receptors expressing CHO-K1 cells
T1 construct: expressed in transfected cells; host or cells: CHO-K1
T1 sequence (P21453 whole entry): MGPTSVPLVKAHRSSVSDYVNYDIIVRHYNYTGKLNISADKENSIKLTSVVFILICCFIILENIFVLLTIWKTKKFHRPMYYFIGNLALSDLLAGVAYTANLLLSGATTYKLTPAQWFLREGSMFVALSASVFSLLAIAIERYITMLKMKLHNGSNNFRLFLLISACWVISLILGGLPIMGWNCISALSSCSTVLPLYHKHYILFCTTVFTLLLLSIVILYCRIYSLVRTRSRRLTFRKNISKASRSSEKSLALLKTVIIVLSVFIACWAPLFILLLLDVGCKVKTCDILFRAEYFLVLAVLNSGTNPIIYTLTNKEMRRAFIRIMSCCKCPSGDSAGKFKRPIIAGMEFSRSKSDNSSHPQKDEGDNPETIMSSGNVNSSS
Method: (§1) Intracellular Calcium Mobilization Induced Test of a Subject Compound Against Human S1P (sphingosine-1-phosphate) Receptor-expressing Cells
(§2) Human S1P receptors expressing CHO-K1 cells (hS1P1 receptors expressing CHO-K1 cells, hS1P3 receptors expressing CHO-K1 cells, and hS1P4 receptors expressing CHO-K1 cells), were maintained in Ham's F-12 medium containing 10% fetal bovine serum and 400 μg/mL Geneticin. Into a black, clear bottom, culture plate (BD Falcon) with 96 wells, 7×10^4 cells/well of the hS1P1 and hS1P3 receptors expressing CHO-K1 cells were plated, and […] of the hS1P4 receptors expressing CHO-K1 cells were plated. The cells were incubated overnight at 37° C. at 5% CO2. The medium in the wells were removed by suction. A loading buffer included in a Calcium Kit-Fluo 3 reagent (Dojindo Laboratories) was added as a fluorescent Ca^2+-binding indicator. The cells were incubated for 80 minutes at 37° C. at 5% CO2. After the incubation, the wells were washed with PBS. A recording buffer included in a Calcium Kit-Fluo 3 reagent was added, and the cells were incubated for 20 minutes at 37° C. at 5% CO2. Using a microplate spectrophotofluorometer (FLEX Station, Molecular Devices), the fluorescence intensity at an excitation wavelength of 485 nm and a detection wavelength of 525 nm was measured. S1P and the subject compound prepared in medium so that the concentration was 10-fold that of the final concentration (final DMSO concentration of 0.1%). The solution was added 18 seconds after the fluorescence measurement was started, and then fluorescence intensity was continuously measured every 1.5 seconds until 100 seconds after addition. A value (fluorescence increase) obtained by subtracting the minimum fluorescence intensity from the maximum fluorescence intensity was calculated from the measurement data. Taking the difference between the fluorescence increase when the solvent was added and the fluorescence increase when the S1P was allowed to act at 10^−6 M as 100%, the fluorescence increase ratio (%) of the subject compound was calculated. Taking this value as the intracellular calcium mobilization induced activity of the subject compound, the EC50 value was determined using PRISM software (GraphPad). In Table 1, 10 nmol/L>EC50 value ≧1 nmol/L is indicated as a +, and 1 nmol/L>EC50 value is indicated as a ++.

human S1P3 receptor = biological target: T2, human S1P3 receptor (Homo sapiens, UniProt Q99500); assay: Intracellular calcium mobilization induced test, hS1P3 receptors expressing CHO-K1 cells
T2 construct: expressed in transfected cells; host or cells: CHO-K1
T2 sequence (Q99500 whole entry): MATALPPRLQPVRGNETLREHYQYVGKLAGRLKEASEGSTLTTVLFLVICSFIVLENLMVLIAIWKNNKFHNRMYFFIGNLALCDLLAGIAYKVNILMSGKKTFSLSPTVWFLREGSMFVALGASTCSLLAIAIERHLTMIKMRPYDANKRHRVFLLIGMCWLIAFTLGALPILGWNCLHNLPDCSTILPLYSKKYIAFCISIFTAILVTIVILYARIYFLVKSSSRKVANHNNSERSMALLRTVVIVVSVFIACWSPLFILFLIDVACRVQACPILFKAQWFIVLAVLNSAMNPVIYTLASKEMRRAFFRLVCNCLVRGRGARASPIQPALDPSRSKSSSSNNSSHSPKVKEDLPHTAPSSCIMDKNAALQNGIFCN
Method: as §1, §2

human S1P4 receptor = biological target: T3, human S1P4 receptor (Homo sapiens, UniProt O95977); assay: Intracellular calcium mobilization induced test, hS1P4 receptors expressing CHO-K1 cells
T3 construct: expressed in transfected cells; host or cells: CHO-K1
T3 sequence (O95977 1-384): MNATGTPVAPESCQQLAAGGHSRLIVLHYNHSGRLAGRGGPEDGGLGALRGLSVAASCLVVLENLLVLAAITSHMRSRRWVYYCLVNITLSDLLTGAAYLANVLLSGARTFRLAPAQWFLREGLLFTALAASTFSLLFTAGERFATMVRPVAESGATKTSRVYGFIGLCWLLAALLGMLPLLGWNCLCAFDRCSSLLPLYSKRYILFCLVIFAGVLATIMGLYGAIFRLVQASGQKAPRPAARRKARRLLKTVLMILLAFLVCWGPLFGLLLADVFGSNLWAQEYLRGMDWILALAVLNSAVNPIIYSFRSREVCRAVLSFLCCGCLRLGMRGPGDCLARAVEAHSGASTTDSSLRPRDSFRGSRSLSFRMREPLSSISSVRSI
Method: as §1, §2

**Q.** What does the source list for `CCc1cccc(Sc2ccc(CCC[C@@](C)(N)COP(=O)(O)O)c(Cl)c2)c1` [Example 46, (R)-2-amino-5-[2-chloro-4-(3-ethylphenylthio)phenyl]-2-methylpentyl phosphonic acid monoester]?
**A.** EC50 (human S1P1 receptor): < 0.001 µM; EC50 (human S1P3 receptor): > 10 µM; EC50 (human S1P4 receptor): 0.001 to 0.01 µM

**Q.** Which EC50 (human S1P1 receptor) does the source give for `C[C@@](N)(CCc1ccc(Sc2cccc(C(F)(F)F)c2)cc1Cl)COP(=O)(O)O` [Example 43] here?
**A.** The EC50 was less than 0.001 µM.

**Q.** And the EC50 (human S1P3 receptor)?
**A.** Its EC50 is greater than 10 µM.

**Q.** And the EC50 (human S1P4 receptor)?
**A.** The EC50 was 0.001 to 0.01 µM.

**Q.** Which EC50 (human S1P1 receptor) does the source give for `C[C@@](N)(CCCc1ccc(Oc2cccc(C(F)(F)F)c2)cc1Cl)COP(=O)(O)O` [Example 40, (R)-2-amino-5-[2-chloro-4-(3-trifluoromethylphenoxy)phenyl]-2-methylpentyl phosphoric acid monoester] here?
**A.** The EC50 was less than 0.001 µM.

**Q.** And the EC50 (human S1P3 receptor)?
**A.** The EC50 was greater than 10 µM.

**Q.** What about the EC50 (human S1P4 receptor) of the same compound?
**A.** Its EC50 is 0.001 to 0.01 µM.

**Q.** With `CCC[C@@](N)(CCCc1ccc(Sc2cccc(C(F)(F)F)c2)cc1Cl)COP(=O)(O)O` [Example 50, (R)-2-amino-5-[2-chloro-4-(3-trifluoromethylphenylthio)phenyl]-2-propylpentyl phosphonic acid monoester] as the compound, how does the EC50 (human S1P1 receptor) read?
**A.** Its EC50 is less than 0.001 µM.

**Q.** What about the EC50 (human S1P3 receptor) of the same compound?
**A.** Its EC50 is greater than 10 µM.

**Q.** What about the EC50 (human S1P4 receptor) of the same compound?
**A.** The EC50 was 0.001 to 0.01 µM.

**Q.** For `CCCc1cccc(Oc2ccc(CCC[C@@](C)(N)COP(=O)(O)O)c(Cl)c2)c1` [Example 47, (R)-2-amino-5-[2-chloro-4-(3-propylphenoxy)phenyl]-2-methylpentyl phosphonic acid monoester], which EC50 (human S1P1 receptor) is on record?
**A.** Its EC50 is less than 0.001 µM.

**Q.** What about the EC50 (human S1P3 receptor) of the same compound?
**A.** Its EC50 is greater than 10 µM.

**Q.** And the EC50 (human S1P4 receptor)?
**A.** Its EC50 is 0.001 to 0.01 µM.

**Q.** Which EC50 (human S1P1 receptor) does the source give for `C[C@@](N)(CCc1ccc(Oc2cccc(C(F)(F)F)c2)cc1Cl)COP(=O)(O)O` [Example 42, (R)-2-amino-4-[2-chloro-4-(3-trifluoromethylphenoxy)phenyl]-2-methylbutyl phosphoric acid monoester] here?
**A.** The EC50 was less than 0.001 µM.

**Q.** What about the EC50 (human S1P3 receptor) of the same compound?
**A.** Its EC50 is greater than 10 µM.

**Q.** What about the EC50 (human S1P4 receptor) of the same compound?
**A.** The EC50 was 0.001 to 0.01 µM.

**Q.** How did the EC50 (human S1P1 receptor) turn out when `C[C@@](N)(CCCc1ccc(Sc2cccc(C(F)(F)F)c2)cc1Cl)COP(=O)(O)O` [Example 41, (R)-2-amino-5-[2-chloro-4-(3-trifluoromethylphenylthio)phenyl]-2-methylpentyl phosphoric acid monoester] was run?
**A.** The EC50 was less than 0.001 µM.

**Q.** What about the EC50 (human S1P3 receptor) of the same compound?
**A.** The EC50 was greater than 10 µM.

**Q.** What about the EC50 (human S1P4 receptor) of the same compound?
**A.** The EC50 was 0.001 to 0.01 µM.

**Q.** `C[C@@](N)(CCCc1ccc(Sc2cccc(C(F)(F)F)c2)cc1F)COP(=O)(O)O` [Example 49, (R)-2-amino-5-[2-fluoro-4-(3-trifluoromethylphenylthio)phenyl]-2-methylpentyl phosphonic acid monoester] was tested. Which EC50 (human S1P1 receptor) did it give?
**A.** Its EC50 is less than 0.001 µM.

**Q.** What about the EC50 (human S1P3 receptor) of the same compound?
**A.** Its EC50 is greater than 10 µM.

**Q.** And the EC50 (human S1P4 receptor)?
**A.** Its EC50 is 0.001 to 0.01 µM.

**Q.** Which EC50 (human S1P1 receptor) does the source give for `C[C@@](N)(CCCc1ccc(Sc2cccc(Cl)c2)cc1Cl)COP(=O)(O)O` [Example 48, (R)-2-amino-5-[2-chloro-4-(3-chlorophenylthio)phenyl]-2-methylpentyl phosphonic acid monoester] here?
**A.** The EC50 was 0.001 to 0.01 µM.

**Q.** And the EC50 (human S1P3 receptor)?
**A.** The EC50 was greater than 10 µM.

**Q.** What about the EC50 (human S1P4 receptor) of the same compound?
**A.** The EC50 was less than 0.001 µM.

**Q.** How did the EC50 (human S1P1 receptor) turn out when `C[C@@](N)(CCCc1ccc(Sc2cccc(C(F)F)c2)cc1Cl)COP(=O)(O)O` [Example 51, (R)-2-amino-5-[2-chloro-4-(3-difluoromethylphenylthio)phenyl]-2-methylpentyl phosphonic acid monoester] was run?
**A.** The EC50 was 0.001 to 0.01 µM.

**Q.** What about the EC50 (human S1P3 receptor) of the same compound?
**A.** The EC50 was greater than 10 µM.

**Q.** And the EC50 (human S1P4 receptor)?
**A.** The EC50 was 0.001 to 0.01 µM.

**Q.** How did the EC50 (human S1P1 receptor) turn out when `CCc1cccc(Sc2ccc(CC[C@@](C)(N)COP(=O)(O)O)c(Cl)c2)c1` [Example 44, (R)-2-amino-4-[2-chloro-4-(3-ethylphenylthio)phenyl]-2-methylbutyl phosphonic acid monoester] was run?
**A.** The EC50 was less than 0.001 µM.

**Q.** And the EC50 (human S1P3 receptor)?
**A.** Its EC50 is greater than 10 µM.

**Q.** What about the EC50 (human S1P4 receptor) of the same compound?
**A.** Its EC50 is 0.001 to 0.01 µM.

**Q.** How did the EC50 (human S1P1 receptor) turn out when `Cc1cccc(Oc2ccc(CCC[C@@](C)(N)COP(=O)(O)O)c(Cl)c2)c1` [Example 45, (R)-2-amino-5-[2-chloro-4-(3-methylphenoxy)phenyl]-2-methylpentyl phosphonic acid monoester] was run?
**A.** Its EC50 is less than 0.001 µM.

**Q.** What about the EC50 (human S1P3 receptor) of the same compound?
**A.** Its EC50 is greater than 10 µM.

**Q.** What about the EC50 (human S1P4 receptor) of the same compound?
**A.** Its EC50 is 0.001 to 0.01 µM.
